Results taken from publication PMC8428848, “Ancient role of sulfakinin/cholecystokinin-type signalling in inhibitory regulation of feeding processes revealed in an echinoderm” (eLife, 2021).
Square brackets hold non-standard residues; d marks the D form. Peptide text beside a SMILES is read from it. sY = N[C@@H](Cc1ccc(OS(=O)(=O)O)cc1)C(=O)O; pGlu = O=C1CC[C@@H](C(=O)O)N1

Columns and labels:
[1] = system: cardiac stomach preparations; experiment: In vitro contraction of cardiac stomach preparations (organ bath); design: species or system Asterias rubens; conditions: for contraction of cardiac stomach preparations: in vitro, 1 nM to 1 μM, n = 5–9; for effect compared with NGFFYamide (100 nM): peptide 1 µM, Student's t-test p > 0.05, data not shown
Description: (§1) Effects of peptides on preparations were tested and recorded using an isotonic transducer (MLT0015, ADInstruments Pty Ltd) connected to a bridge amplifier (FE221 Bridge Amp, ADInstruments Pty Ltd) linked to PowerLab data acquisition hardware (2/36, ADInstruments Pty Ltd). Data were collected and analysed using LabChart (RRID:SCR_017551; v8.0.7) software installed on a laptop computer (Lenovo E540, Windows 7 Professional). Stock solutions of synthetic peptides were prepared in distilled water and added to the organ bath to achieve final concentrations ranging from 0.1 nM to 1 μM. To assess the viability of preparations and to enable normalization of responses to ArSK/CCK1 or ArSK/CCK2, the starfish neuropeptide NGFFYamide (100 nM) was tested on cardiac stomach preparations and acetylcholine (10 µM) was tested on tube foot and apical muscle preparations. To assess the importance of tyrosine sulphation for peptide bioactivity, a non-sulphated analog of ArSK/CCK2 (ArSK/CCK2(ns)) was also tested on cardiac stomach (n = 5), tube foot, and apical muscle preparations (data not shown).

[2] = system: apical muscle preparations; experiment: In vitro contraction of apical muscle preparations (organ bath); design: species or system Asterias rubens; conditions: for contracting action on apical muscle, % of the effect of 10 µM acetylcholine: highest concentration tested (1 µM), n = 20–23; for contraction of apical muscle preparations: in vitro
Description: as §1

[3] = system: affinity-purified rabbit antibodies to ArSK/CCK1; experiment: ELISA specificity test of affinity-purified antibodies to ArSK/CCK1; assay type: binding; conditions: TEA fraction diluted 1:10; peptide 0.1 nmol (100 µl of 1 µM); mean of six replicates
From the text: To generate antibodies to ArSK/CCK1, an N-terminally truncated peptide analog of ArSK/CCK1 with the addition of a reactive N-terminal lysine residue was synthesized (KY(SO3H)GHGLFW-NH2 , Peptide Protein Research Ltd, Fareham, UK). To generate antibodies to ArSK/CCKR, a peptide corresponding to the C-terminal 15 amino acids of ArSK/CCK-R with addition of an N-terminal reactive lysine residue was synthesized (KPSPTNYTNVSSDSSV, Peptide Protein Research Ltd, Fareham, UK). These peptides were conjugated to porcine thyroglobulin (Sigma-Aldrich, Gillingham, UK) as a carrier protein using 5% glutaraldehyde (Sigma-Aldrich, Gillingham, UK) in phosphate buffer (0.1 M; pH 7.2) and the conjugate was used for immunisation of a rabbit for ArSK/CCK1 (70-day protocol; Charles River Biologics, Romans, France) and a guinea pig for ArSK/CCKR (56-day protocol; Charles River Biologics, Romans, France). The antigens were emulsified in Freund’s complete adjuvant for primary immunisations (~100 nmol antigen peptide) and in Freund’s incomplete adjuvant for three booster immunisations (~50 nmol antigen peptide). The presence of antibodies to the antigen peptides in post-immunisation serum samples was assessed using an enzyme-linked immunosorbent assay (ELISA), in comparison with pre-immune serum (Figure 5—figure supplement 1a; Figure 6—figure supplement 1). Antibodies to the antigen peptides were purified from the final bleed antiserum by affinity purification using the AminoLink Plus Immobilization Kit (Thermo Fisher Scientific, Waltham, MA), with bound antibodies eluted using glycine elution buffer (6.3 ml of 100 mM glycine [VWR Chemicals, Leicestershire, UK] and 0.7 ml of Tris [1 M, pH = 7.0]) and […] (TEA) elution buffer (6.3 ml of TEA [Sigma-Aldrich, Gillingham, UK] and 0.7 ml of Tris [1 M, pH = 7.0]). Eluates were dialyzed and sodium azide (0.1%) was added for long-term storage of the affinity-purified antibodies at 4°C. The specificity of ArSK/CCK1 antibodies eluted with TEA, which were subsequently used for immunohistochemistry (see below), was assessed by ELISA by testing them at a concentration of 1:10 with the following synthetic peptides (100 µl at a concentration of 1 µM dissolved in carbonate/bicarbonate buffer [25 mM sodium carbonate, 25 mM sodium bicarbonate, pH = 9.8]): ArSK/CCK1, ArSK/CCK2, ArSK/CCK2(ns) and the A. rubens luqin-type peptide ArLQ (Figure 5—figure supplement 1b). The rabbit antiserum to ArSK/CCK1 has been assigned the RRID:AB_2877176 and the guinea pig antiserum to ArSK/CCKR has been assigned the RRID:AB_2891354.

tube foot preparations = experiment: In vitro contraction of tube foot preparations (organ bath); design: species or system Asterias rubens; conditions: for contraction of tube foot preparations: in vitro, 1 nM to 1 µM, n = 8–10; for mean effect on tube foot preparations, % of the effect of 10 µM acetylcholine: peptide 1 µM
Description: as §1

Asterias rubens = experiment: In vivo retraction of the everted cardiac stomach after injection; conditions: for cardiac stomach retraction in vivo: injection of 10 nmol (10 μl of 1 mM) into perivisceral coelom, eversion induced with 2% MgCl2 in seawater, 6 min; for reduction in the area of cardiac stomach everted: within 360 s after injection of 10 mol (10 µl 1 mM), normalized to area at T0, n = 6 (ArSK/CCK1), 6 (ArSK/CCK2), 8 (ArSK/CCK2(ns))
Description: Therefore, experiments were performed to investigate if ArSK/CCK1 and ArSK/CCK2 also trigger cardiac stomach retraction in A. rubens. Twenty specimens of A. rubens, which had been withheld from a food supply for 1 week, were placed in a glass tank containing 2% magnesium chloride (MgCl2; Sigma-Aldrich, Gillingham, UK) dissolved in seawater, which acts as a muscle relaxant in marine invertebrates ([Mayer, 1909]). This treatment conveniently and reproducibly causes eversion of the cardiac stomach in A. rubens, typically within a period of ~30 min ([Semmens et al., 2013]). Hamilton 75 N 10 μl syringes (Sigma-Aldrich, Gillingham, UK) were used to inject test compounds into the perivisceral coelom of animals, inserting the needle through the aboral body wall of the arms proximal to the junctions with the central disk region. Care was taken to inject neuropeptides (ArSK/CCK1, ArSK/CCK2 and ArSK/CCK2(ns)) or distilled water (control) into the perivisceral coelom and not into the cardiac stomach. All animals were first injected with 10 μl of distilled water (control) and video-recorded for 6 min. The same animals were then injected with 10 μl of 1 mM peptide (10 nmol) and video-recorded for 6 min. Static images from video recordings were captured at 30 s intervals from the time of injection. Then the two-dimensional area of everted cardiac stomach was measured from the images using the ImageJ software (version 1.0; http://rsb.info.nih.gov/ij) and normalized as a percentage of the area of cardiac stomach everted at the time of injection (T0).

CC(C)C[C@H](NC(=O)CNC(=O)[C@H](Cc1ccccc1)NC(=O)CNC(=O)[C@H](Cc1ccc(OS(=O)(=O)O)cc1)NC(=O)[C@H](CCC(N)=O)NC(=O)[C@H](CC(=O)O)NC(=O)[C@H](CC(=O)O)NC(=O)CNC(=O)CN)C(=O)N[C@@H](Cc1ccccc1)C(=O)N[C@@H](Cc1ccccc1)C(N)=O [ArSK/CCK2] (H-GGDDQ[sY]GFGLFF-NH2; N-terminus assumed)
contraction of cardiac stomach preparations [1]: concentration-dependent contraction
effect compared with NGFFYamide (100 nM) [1]: not significantly different
contracting action on apical muscle, % of the effect of 10 µM acetylcholine [2]: ~ 40%
contraction of apical muscle preparations [2]: caused contraction
ELISA reactivity (optical density) with antibodies to ArSK/CCK1 [3]: do not cross-react
contraction of tube foot preparations (tube foot preparations): concentration-dependent contraction
mean effect on tube foot preparations, % of the effect of 10 µM acetylcholine (tube foot preparations): ~ 110%
cardiac stomach retraction in vivo (Asterias rubens): triggered cardiac stomach retraction
reduction in the area of cardiac stomach everted (Asterias rubens): > 50%

CC(C)C[C@H](NC(=O)CNC(=O)[C@H](Cc1ccccc1)NC(=O)CNC(=O)[C@H](Cc1ccc(O)cc1)NC(=O)[C@H](CCC(N)=O)NC(=O)[C@H](CC(=O)O)NC(=O)[C@H](CC(=O)O)NC(=O)CNC(=O)CN)C(=O)N[C@@H](Cc1ccccc1)C(=O)N[C@@H](Cc1ccccc1)C(N)=O [ArSK/CCK2(ns)] (H-GGDDQYGFGLFF-NH2; N-terminus assumed)
contraction of cardiac stomach preparations [1]: modest contraction
contraction of apical muscle preparations [2]: no effect
ELISA reactivity (optical density) with antibodies to ArSK/CCK1 [3]: do not cross-react
contraction of tube foot preparations (tube foot preparations): did not cause contraction
cardiac stomach retraction in vivo (Asterias rubens): did not trigger cardiac stomach retraction
reduction in the area of cardiac stomach everted (Asterias rubens): no effect

CC(C)C[C@H](NC(=O)CNC(=O)[C@H](Cc1c[nH]cn1)NC(=O)CNC(=O)[C@H](Cc1ccc(OS(=O)(=O)O)cc1)NC(=O)[C@H](CC(=O)O)NC(=O)[C@H](CC(=O)O)NC(=O)[C@@H](NC(=O)[C@H](CCCCN)NC(=O)[C@H](CO)NC(=O)[C@@H]1CCC(=O)N1)C(C)C)C(=O)N[C@@H](Cc1ccccc1)C(=O)N[C@@H](Cc1c[nH]c2ccccc12)C(N)=O [ArSK/CCK1] ([pGlu]SKVDD[sY]GHGLFW-NH2)
contraction of cardiac stomach preparations [1]: concentration-dependent contraction
effect compared with NGFFYamide (100 nM) [1]: not significantly different
contracting action on apical muscle, % of the effect of 10 µM acetylcholine [2]: ~ 40%
contraction of apical muscle preparations [2]: caused contraction
ELISA reactivity (optical density) with antibodies to ArSK/CCK1 [3]: above the OD value for the negative control
effectiveness on tube foot preparations compared with ArSK/CCK2 (tube foot preparations; 25 and 100 nM, Bonferroni's test p < 0.01 and 0.05): significantly more effective than ArSK/CCK2
contraction of tube foot preparations (tube foot preparations): concentration-dependent contraction
mean effect on tube foot preparations, % of the effect of 10 µM acetylcholine (tube foot preparations): ~ 220%
cardiac stomach retraction in vivo (Asterias rubens): triggered cardiac stomach retraction
reduction in the area of cardiac stomach everted (Asterias rubens): > 50%
